Counter-ions that a name gives are not always drawn. Like-named read-outs stand apart in the source and are kept apart here.
Legend:
[1] = Host cell cytotoxicity (C2C12 viability); type: cell-based, Mouse; details: mouse; for viability at 48 h, 10 µM: < 50% viability considered cytotoxic; for CC50 at 48 h: viability calculated at 10 μM
Method: Antiparasitic activity and cytotoxicity of compounds were determined as described before (da Silva et al., Boudreau et al.). Mouse myoblasts cell line C2C12 (ATCCCRL-1772), were maintained in high glucose (4.5 g/L glucose) Dulbecco’s modified Eagle’s medium (DMEM Gibco), supplemented with 1% penicillin–streptomycin 10,000 U/mL (Gibco) and 5% fetal bovine serum (FBS, Sigma-Aldrich) at 37 °C with 5% CO2. parasites (CAI/72 strain, DTU TcI) were maintained by weekly coinfection with C2C12 cells. For all activity assays, C2C12 cells were infected at a 10:1 parasite-to-cell ratio with culture-derived trypomastigotes, which were harvested from the supernatant of infected C2C12 cells. After adding compounds to 384-well black clear-bottom plates (Greiner cat. no. 781091), trypomastigotes (7000 parasites/well) and C2C12 cells (700 cells/well) were seeded in a total volume of 50 μL of DMEM per well in the 384-well plates. Compounds were first tested at 10 μM. […] After 48 h at 37 °C and 5% CO2, plates were fixed with 4% formaldehyde solution for at least 1 h, washed with 1× PBS, and stained with 5 μg/mL of 4′,6-diamidino-2-phenylindole (DAPI) for at least 1 h prior to reading. Plates were imaged with the automated ImageXpress MicroXL microscope (Molecular Devices) and analyzed by MetaXpress software (Molecular Devices) using a custom module optimized for this assay. Infection levels (parasites per host cell) were normalized to the positive control (40 μM BNZ) and negative control (DMSO). Antiparasitic activity (EC50) ± standard deviation (SD) and host cell cytotoxicity (C2C12 viability) values were determined from the DRC using Prism software (GraphPad Software, La Jolla, CA). Every assay has three biological replicates, each in triplicates (n = 9 data points).

T. cruzi CAI/72 strain = assay: Antiparasitic activity in C2C12 cells infected with T. cruzi CAI/72 (image-based assay); type: cell-based; details: Trypanosoma cruzi; for EC50: mean of three experiments in triplicate (n = 9) ± SD
Method: Antiparasitic activity and cytotoxicity of compounds were determined as described before (da Silva et al., Boudreau et al.). Mouse myoblasts cell line C2C12 (ATCCCRL-1772), were maintained in high glucose (4.5 g/L glucose) Dulbecco’s modified Eagle’s medium (DMEM Gibco), supplemented with 1% penicillin–streptomycin 10,000 U/mL (Gibco) and 5% fetal bovine serum (FBS, Sigma-Aldrich) at 37 °C with 5% CO2. parasites (CAI/72 strain, DTU TcI) were maintained by weekly coinfection with C2C12 cells. For all activity assays, C2C12 cells were infected at a 10:1 parasite-to-cell ratio with culture-derived trypomastigotes, which were harvested from the supernatant of infected C2C12 cells. After adding compounds to 384-well black clear-bottom plates (Greiner cat. no. 781091), trypomastigotes (7000 parasites/well) and C2C12 cells (700 cells/well) were seeded in a total volume of 50 μL of DMEM per well in the 384-well plates. Compounds were first tested at 10 μM. […] Plates were imaged with the automated ImageXpress MicroXL microscope (Molecular Devices) and analyzed by MetaXpress software (Molecular Devices) using a custom module optimized for this assay. Infection levels (parasites per host cell) were normalized to the positive control (40 μM BNZ) and negative control (DMSO). Antiparasitic activity (EC50) ± standard deviation (SD) and host cell cytotoxicity (C2C12 viability) values were determined from the DRC using Prism software (GraphPad Software, La Jolla, CA). Every assay has three biological replicates, each in triplicates (n = 9 data points).

recombinant Cz (cruzain) = biological target: T1, recombinant Cz (cruzain) (Trypanosoma cruzi, UniProt P25779); assay: biochemical; details: read-out: Cz inhibition (%), 10 µM
T1 construct: Cz was expressed and purified as described in da Silva et al; made in house
Method: The screening assay was performed using 1 nM of Cz diluted in 0.1 M sodium acetate pH 5.5, 1 mM dithiothreitol (DTT), and 0.01% Triton X-100. Cz was expressed and purified as described in da Silva et al. The reaction starts after 10 min incubating the enzyme with the compounds (10 μM), when adding 2.5 μM of the substrate Z-FR-AMC final concentration (Z-Phe-Arg-amidomethylcoumarin, Sigma-Aldrich, C9521) diluted in the same assay buffer (final volume of 30 μL). The experiment was performed for 10 min. […] The DRC was performed with at least nine different concentrations of the inhibitors, diluted by 2-fold serial dilution, ranging from […] to 10 μM.
All experiments were accomplished in a 384-well black microplate, using a Synergy HTX (Biotek) plate reader at 25 °C with absorption/emission wavelengths of 360/460 nm. All assays were performed in triplicate wells and DMSO was used as a vehicle control. Enzymatic activity was measured and normalized to DMSO controls, and the inhibitor E-64 (10 μM) was used as a positive control for all assays. All experiments were performed in triplicates, with at least two independent assays (n = 6 data points). IC50 values were determined through nonlinear regression. Obtained data were treated and analyzed using GraphPad Prism 9.0 (GraphPad Software, La Jolla, California).

[2] = C2C12 myoblast cells infected with trypomastigotes
[3] = intracellular amastigotes in C2C12 cells, 48 h, read-out: EC50 Tc CAI/72
[4] = 10 µM, C2C12 infected cells, read-out: Anti-Tc CAI/72 activity (%)
[5] = C2C12, read-out: Anti-Tc CAI/72 activity (%)

T1 sequence (P25779 123-337 limits assumed): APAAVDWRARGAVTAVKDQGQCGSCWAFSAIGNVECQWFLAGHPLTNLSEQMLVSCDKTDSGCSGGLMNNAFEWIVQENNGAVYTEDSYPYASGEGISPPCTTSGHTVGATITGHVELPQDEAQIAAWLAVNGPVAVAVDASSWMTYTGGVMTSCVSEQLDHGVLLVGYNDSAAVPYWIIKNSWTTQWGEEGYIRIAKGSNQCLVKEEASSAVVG

SMILES: O=C(Cn1ccnc1[N+](=O)[O-])NCc1ccccc1 [BZ, Benznidazole, reference compound]
- viability at 48 h, 10 µM [1, 2]: > 100%
- CC50 at 48 h [1, 2]: > 10 µM
- inhibition at 40 µM (T. cruzi CAI/72 strain; 40 µM (BZ), C2C12 infected cells, read-out: Anti-Tc CAI/72 activity (%)): 81.7%
- EC50 (T. cruzi CAI/72 strain; [3]): 5.79 ± 1.2 µM

SMILES: C/C(=N\NC(N)=S)c1ccc(C)cc1 [Compound S1a, (E)-2-(1-(4-Tolyl)ethylidene)hydrazine-1-carbothioamide]
- viability at 48 h, 10 µM [1]: > 100%
- inhibition at 10 µM (T. cruzi CAI/72 strain; [4]): 42.3%
- inhibition at 10 µM (recombinant Cz (cruzain)): 74.8%

SMILES: COc1ccc(/C(C)=N/NC(N)=S)cc1 [Compound S1b, (E)-2-(1-(4-Methoxyphenyl)ethylidene)hydrazine-1-carbothioamide]
- viability at 48 h, 10 µM [1, 2]: > 100%
- inhibition at 10 µM (T. cruzi CAI/72 strain; [4]): 23.2%
- inhibition at 10 µM (recombinant Cz (cruzain)): 87.1%

SMILES: C/C(=N\NC(N)=S)c1ccc([N+](=O)[O-])cc1 [Compound S1c, (E)-2-(1-(4-Nitrophenyl)ethylidene)hydrazine-1-carbothioamide]
- viability at 48 h, 10 µM [1, 2]: > 100%
- inhibition at 10 µM (T. cruzi CAI/72 strain; [4]): 20.6%
- inhibition at 10 µM (recombinant Cz (cruzain)): 97.6%

SMILES: C/C(=N\NC(N)=S)c1ccc(C(F)(F)F)cc1 [Compound S1d, (E)-2-(1-(4-(Trifluoromethyl)phenyl)ethylidene)hydrazine-1-carbothioamide]
- viability at 48 h, 10 µM [1, 2]: 93.1%
- inhibition at 10 µM (T. cruzi CAI/72 strain; [4]): 43.8%
- inhibition at 10 µM (recombinant Cz (cruzain)): 85.8%

SMILES: C/C(=N\NC(N)=S)c1ccc(Br)cc1 [Compound S1f, (E)-2-(1-(4-Bromophenyl)ethylidene)hydrazine-1-carbothioamide]
- viability at 48 h, 10 µM [1, 2]: > 100%
- inhibition at 10 µM (T. cruzi CAI/72 strain; [4]): 45.4%
- inhibition at 10 µM (recombinant Cz (cruzain)): 97.1%

SMILES: COc1cccc(/C(C)=N/N=C(/N)S)c1 [Compound S1g, (E)-2-(1-(3-Methoxyphenyl)ethylidene)hydrazine-1-carbothioamide]
- viability at 48 h, 10 µM [1, 2]: > 100%
- inhibition at 10 µM (T. cruzi CAI/72 strain; [4]): 22.3%
- inhibition at 10 µM (recombinant Cz (cruzain)): 95.3%

SMILES: C/C(=N\NC(N)=S)c1ccc(F)c(F)c1 [Compound S1j, (E)-2-(1-(3,4-Difluorophenyl)ethylidene)hydrazine-1-carbothioamide]
- viability at 48 h, 10 µM [1, 2]: > 100%
- inhibition at 10 µM (T. cruzi CAI/72 strain; [4]): 49.9%
- inhibition at 10 µM (recombinant Cz (cruzain)): 99.8%

SMILES: COc1ccc(/C(C)=N/NC(N)=S)c(OC)c1 [Compound S1k, (E,Z)-2-(1-(2,4-Dimethoxyphenyl)ethylidene)hydrazine-1-carbothioamide]
- viability at 48 h, 10 µM [1, 2]: > 100%
- inhibition at 10 µM (T. cruzi CAI/72 strain; [4]): 0.7%
- inhibition at 10 µM (recombinant Cz (cruzain)): 39.3%

SMILES: C/C(Cc1cccc(Cl)c1)=N\NC(N)=S [Compound S1m, (E)-2-(1-(3-Chlorophenyl)propan-2-ylidene)hydrazine-1-carbothioamide]
- viability at 48 h, 10 µM [1, 2]: > 100%
- CC50 at 48 h [1, 2]: > 10 µM
- inhibition at 10 µM (T. cruzi CAI/72 strain; [4]): 69.4%
- EC50 (T. cruzi CAI/72 strain; [3]): 2.92 ± 0.16 µM
- inhibition at 10 µM (recombinant Cz (cruzain)): 72.3%

SMILES: COc1ccc(C/C(C)=N/NC(N)=S)cc1 [Compound S1n, (E)-2-(1-(4-Methoxyphenyl)propan-2-ylidene)hydrazine-1-carbothioamide]
- viability at 48 h, 10 µM [1, 2]: > 100%
- inhibition at 10 µM (T. cruzi CAI/72 strain; [4]): 34.5%
- inhibition at 10 µM (recombinant Cz (cruzain)): 56.2%

SMILES: C/C(=N\NC(N)=S)c1csc2ccccc12 [Compound S1o, (E)-2-(1-(Benzo[b]thiophen-3-yl)ethylidene)hydrazine-1-carbothioamide]
- viability at 48 h, 10 µM [1, 2]: > 100%
- inhibition at 10 µM (T. cruzi CAI/72 strain; [4]): 23.1%
- inhibition at 10 µM (recombinant Cz (cruzain)): 100%

SMILES: C/C(=N\NC(N)=S)c1cc2ccccc2o1 [Compound S1p, (E)-2-(1-(Benzofuran-2-yl)ethylidene)hydrazine-1-carbothioamide]
- viability at 48 h, 10 µM [1, 2]: > 100%
- inhibition at 10 µM (T. cruzi CAI/72 strain; [4]): 49.7%
- inhibition at 10 µM (recombinant Cz (cruzain)): 99.3%

SMILES: C/C(=N\Nc1nc(C)cs1)c1ccc(C)cc1 [Compound S2a, (E)-4-Methyl-2-(2-(1-(4-tolyl)ethylidene)hydrazineyl)thiazole Hydrochloride]
- viability at 48 h, 10 µM [1, 2]: > 100%
- inhibition at 10 µM (T. cruzi CAI/72 strain; [4]): 12.5%
- inhibition at 10 µM (recombinant Cz (cruzain)): 36.8%

SMILES: COc1ccc(/C(C)=N/Nc2nc(C)cs2)cc1 [Compound S2b, (E)-2-(2-(1-(4-Methoxyphenyl)ethylidene)hydrazineyl)-4-methylthiazole Hydrochloride]
- viability at 48 h, 10 µM [1, 2]: > 100%
- inhibition at 10 µM (T. cruzi CAI/72 strain; [4]): 23.5%
- inhibition at 10 µM (recombinant Cz (cruzain)): 37.5%

SMILES: C/C(=N\Nc1nc(C)cs1)c1ccc([N+](=O)[O-])cc1 [Compound S2c, (E)-4-Methyl-2-(2-(1-(4-nitrophenyl)ethylidene)hydrazineyl)thiazole Hydrochloride]
- viability at 48 h, 10 µM [1, 2]: 99.2%
- inhibition at 10 µM (recombinant Cz (cruzain)): 96.7%

SMILES: C/C(=N\Nc1nc(C)cs1)c1ccc(C(F)(F)F)cc1 [Compound S2d, (E)-4-Methyl-2-(2-(1-(4-(trifluoromethyl)phenyl)ethylidene)hydrazineyl)thiazole Hydrochloride]
- viability at 48 h, 10 µM [1, 2]: > 100%
- inhibition at 10 µM (recombinant Cz (cruzain)): 41.6%

SMILES: C/C(=N\Nc1nc(C)cs1)c1ccc(C#N)cc1 [Compound S2e, (E)-4-(1-(2-(4-Methylthiazol-2-yl)hydrazineylidene)ethyl)benzonitrile Hydrochloride]
- viability at 48 h, 10 µM [1, 2]: > 100%
- inhibition at 10 µM (T. cruzi CAI/72 strain; [4]): 22.4%
- inhibition at 10 µM (recombinant Cz (cruzain)): 89.8%

SMILES: C/C(=N\NC(N)=[Se])c1ccc(F)c(F)c1 [Se1j, (E)-2-(1-(3,4-Difluorophenyl)ethylidene)hydrazine-1-carboselenoamide]
- viability at 48 h, 10 µM [1]: 27.7%
- inhibition at 10 µM (recombinant Cz (cruzain)): 102%

SMILES: COc1ccc(/C(C)=N/NC(N)=[Se])c(OC)c1 [Se1k, (E,Z)-2-(1-(2,4-Dimethoxyphenyl)ethylidene)hydrazine-1-carboselenoamide]
- viability at 48 h, 10 µM [1]: 43.7%
- inhibition at 10 µM (recombinant Cz (cruzain)): 92.5%

SMILES: COc1ccc(/C(C)=N/Nc2nc(C)c[se]2)c(OC)c1 [Se2k, (E,Z)-2-(2-(1-(2,4-Dimethoxyphenyl)ethylidene)hydrazineyl)-4-methyl-1,3-selenazole Hydrochloride]
- viability at 48 h, 10 µM [1]: > 100%
- inhibition at 10 µM (T. cruzi CAI/72 strain; [5]): 38.1%

SMILES: C/C(=N\Nc1nc(C)c[se]1)c1ccsc1 [Se2l, (E)-4-Methyl-2-(2-(1-(thiophen-3-yl)ethylidene)hydrazineyl)-1,3-selenazole Hydrochloride]
- viability at 48 h, 10 µM [1]: > 100%
- CC50 at 48 h [1]: > 10 µM
- EC50 (T. cruzi CAI/72 strain; C2C12, 48 h, read-out: EC50 Tc CAI/72, intracellular amastigotes in C2C12 cells, 48 h): 3.73 µM
- inhibition at 10 µM (T. cruzi CAI/72 strain; [5]): 50.4%

SMILES: C/C(=N\Nc1nc(C)c[se]1)C12CC3CC(CC(C3)C1)C2 [Se2q, 2-(2-((E)-1-((3s)-Adamantan-1-yl)ethylidene)hydrazineyl)-4-methyl-1,3-selenazole]
- viability at 48 h, 10 µM [1]: > 100%
- inhibition at 10 µM (T. cruzi CAI/72 strain; [5]): 40.6%

From publication PMC12320831, “Synthesis and Biological Evaluation of New Chalcogen Semicarbazone (S, Se) and Their Azole Derivatives against Chagas Disease” (Journal of Medicinal Chemistry, 2024)
